Where two headings read alike, the source gives them in different places.
What was measured:
[1] = In vitro release of NMP, USP II paddle method in 0.5% SDS solution; format: physicochemical; settings: 250 mL, 37 °C, 50 rpm, 10 mg NMP
Procedure: The in vitro release behavior of samples was assessed by a USP II paddle method on a dissolution apparatus (ZRS-8G, Huanghai Medicament Test Instrument, China). Prewarmed medium of 0.5% (w/v) sodium dodecyl sulfate (SDS) solution (250 mL, 37 °C) was added to the dissolution cup with a stirrer rotation speed of 50 rpm. 10 mg NMP, NMP/MCM41 and NMP/PEIs@TA-CMSs samples containing 10 mg of NMP were suspended in the release medium. 5 mL of aliquots were collected and replaced by an equal volume of fresh isothermal supplement at predetermined time intervals, After filtering through a 0.22 μm membrane filter, the drug release amounts were tested by UV spectroscopy (UV-1750, Shimadzu, Japan) at 238 nm. All in vitro release studies were repeated three times.

[2] = In vivo pharmacokinetics after oral administration; parameters: species or system Sprague-Dawley rats; settings: rats
Procedure: Twelve male Sprague-Dawley rats (SD rats, 180–220 g body weight) were randomly divided into three groups (n = 4): NMP group, NMP/PEIs@TA-CMS group and NMP/MCM41 group. Prior to the experiment, animals were fasted overnight with free access to water. The animals were orally administered the water suspensions of NMP, NMP/PEIs@TA-CMS and NMP/MCM4 with a drug dose of 2.5 mg. At appropriate sampling times, aliquot blood sample (about 0.6 mL) was withdrawn via the retro-orbital venous sinus, centrifuged to separate the plasma, and stored at −20 °C.
In the pretreatment procedure, 20 μL of internal standard solution (nitrendipine, 20 μg/mL) was added into 200 μL plasma sample and vortexed for 1 min. Afterwards, 100 μL NaOH (0.01 mol/L) was uniformly mixed with the system and vortexed for 1 min. The drug was extracted by 2.5 mL diethyl ether, vortexed for 5 min, and centrifugated for 12 min to separate the organic layer (2 mL). The organic layer (2 mL) was then transferred to a new tube and evaporated to dryness under a gentle stream of N2. After reconstituting with 100 μL mobile phase, the 20 μL sample was analyzed by high performance liquid chromatography (HPLC) method. The separation procedure was performed on a Kromasil ODS-2C18 column (Thermo ODS-2 Hypersil, 250 mm × 4.6 mm, […], UK) equipped with a JanuSep C18 pre-column (Liaoning, China), and the column temperature was kept at 25 °C. The UV detector was set at 240 nm. The mixture of methanol, acetonitrile and water (3:4:3, v/v/v) was selected as the optimized mobile phase with a flow rate of 1 mL/min. The NMP content was calculated according to internal standard method, and the main pharmacokinetic parameters were obtained using the software of DAS 2.0.

[3] = test system: cerebral anoxia of mice induced by NaNO2; test: In vivo pharmacodynamics: survival time of mice on cerebral anoxia induced by NaNO2; parameters: species or system Kunming mice; settings: oral dose 0.5 mg NMP (middle dose); NaNO2 i.p. 90 min post administration
Procedure: The pharmacodynamics study was performed to further evaluating the effect of PEIs@TA-CMS on improving the oral adsorption of NMP. 36 SPF-grade Kunming mice (18–22 g body weight) were assigned into six groups, randomly (n = 6): Normal saline group, NMP group, NMP/PEIs@TA-CMS (low dose) group, NMP/PEIs@TA-CMS (middle dose) group, NMP/PEIs@TA-CMS (high dose) group and NMP/MCM41 group. Before dosing, animals were fasted overnight with free access to water. Animals in the Normal Saline group were received oral treatment of 0.5 mL normal saline, and were considered as negative control. While for NMP group which severed as positive control, 0.5 mg pure NMP was suspended in 0.5 mL normal saline and was imposed to animals. Normal saline suspensions of NMP/PEIs@TA-CMS and NMP/MCM41 containing 0.5 mg NMP were also oral administrated to mice. Meanwhile, half and twice of the dose in NMP/PEIs@TA-CMS (middle dose) group, which were respectively in doses equivalent to 0.25 mg and 1 mg NMP, were given to mice to further study the influence of dose. […] Then the clinic manifestation and survival time of mice was recorded to study the protective effect of NMP formulations on mice cerebral anoxia.

[4] = background statement, no reference given; cited from earlier work

With `COCCOC(=O)C1=C(C)NC(C)=C(C(=O)OC(C)C)C1c1cccc([N+](=O)[O-])c1` (stereo not drawn) [NMP, nimodipine] the “drug release amount within 60 min” value [1] was 29.24%, the “drug release amount within 240 min” value [1] was 41.32% and the half-life ([2]; male, Sprague-Dawley, rat, plasma, drug dose 2.5 mg) was 10.9 ± 1.13 h. The MRT inf ([2]; male, Sprague-Dawley, rat, plasma, drug dose 2.5 mg, read-out: MRT0-∞) was 8.84 ± 1.73 h, the Cmax ([2]; male, Sprague-Dawley, rat, plasma, drug dose 2.5 mg, read-out: maximum concentration (Cmax)) was 100 ng/mL and the AUC(0-inf) ([2]; male, Sprague-Dawley, rat, plasma, drug dose 2.5 mg, water suspension) was 1190 ± 160 ng·h/mL. The Cmax ([2]; drug dose 2.5 mg) was 100 ± 20 ng/mL, the Tmax ([2]; drug dose 2.5 mg) was 0.5 ± 0 h and the Relative bioavailability ([2]; drug dose 2.5 mg, relative to pure NMP) was 100%. For the same molecule, the “time of second plasma concentration peak (double peaks)” value ([2]; post administration, suggests enterohepatic circulation) was 8 h, the “survival time of mice after injection of NaNO2” value [3] was 14.33 min and the bioavailability [4] was “lower than 13%”.
